The test system of one data set is GPX. The conditions noted are these: great excess of 4-hydroxynonenal (1 mM); cited from earlier work.
In data set [1] the target is T1, DmTrxR-CCS (Drosophila melanogaster, UniProt P91938). Kind of data set: NADPH-pre-reduced enzyme. Type of data set: biochemical. The conditions noted are these: n = 3.
Target sequence in this assay (P91938 106-596): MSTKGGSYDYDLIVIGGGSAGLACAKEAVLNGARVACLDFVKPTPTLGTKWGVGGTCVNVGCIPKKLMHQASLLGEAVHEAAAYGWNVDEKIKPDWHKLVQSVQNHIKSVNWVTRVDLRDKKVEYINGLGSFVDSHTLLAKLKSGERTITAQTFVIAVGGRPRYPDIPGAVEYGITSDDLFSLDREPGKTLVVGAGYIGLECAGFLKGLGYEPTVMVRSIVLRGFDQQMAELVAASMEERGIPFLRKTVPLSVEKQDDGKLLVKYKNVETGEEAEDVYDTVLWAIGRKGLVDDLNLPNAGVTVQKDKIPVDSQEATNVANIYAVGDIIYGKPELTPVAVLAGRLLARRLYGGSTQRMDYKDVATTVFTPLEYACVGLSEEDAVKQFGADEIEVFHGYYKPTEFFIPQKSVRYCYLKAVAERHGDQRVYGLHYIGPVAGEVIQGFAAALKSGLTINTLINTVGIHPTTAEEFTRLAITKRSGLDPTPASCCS
In data set [2] the target is T1, DmTrxR-CCS. Kind of data set: Inhibition of Trx-reductase activity by electrophiles. Type of data set: biochemical, D. melanogaster. The following applies: 7 μM acrolein, pH 7, 10 min, 22 °C.
Target sequence in this assay (P91938 1-491 isoform P91938-2): as the sequence (P91938 106-596) above, with S2A, T3P, K4V, G5Q counted along it
Data set [3] addresses mTrxR-C(αMe)UG (Mus musculus, UniProt Q9JLT4). The description is as above. Type of data set: biochemical.
In a further data set the target is mTrxR-CUG (Mus musculus, UniProt Q9JLT4). Described as above. Type of data set: biochemical.
Data set [4] in a line: Solubility in aqueous solutions. Type of data set: physicochemical.
The subject of data set [5] is mTrxR-C(αMe)UG. Type of data set: biochemical. The conditions noted are these: read-out: KM (μM), Table 3, DTNB as substrate; n = 3.
Data set [6] concerns mTrxR-C(αMe)UG. Type of data set: biochemical. The conditions noted are these: read-out: KM (μM), Table 4, selenocysteamine as substrate; n = 3.

Read-outs that look alike come from different tables or passages of the source.

Chain of mTrxR-CUG (Q9JLT4 35-524): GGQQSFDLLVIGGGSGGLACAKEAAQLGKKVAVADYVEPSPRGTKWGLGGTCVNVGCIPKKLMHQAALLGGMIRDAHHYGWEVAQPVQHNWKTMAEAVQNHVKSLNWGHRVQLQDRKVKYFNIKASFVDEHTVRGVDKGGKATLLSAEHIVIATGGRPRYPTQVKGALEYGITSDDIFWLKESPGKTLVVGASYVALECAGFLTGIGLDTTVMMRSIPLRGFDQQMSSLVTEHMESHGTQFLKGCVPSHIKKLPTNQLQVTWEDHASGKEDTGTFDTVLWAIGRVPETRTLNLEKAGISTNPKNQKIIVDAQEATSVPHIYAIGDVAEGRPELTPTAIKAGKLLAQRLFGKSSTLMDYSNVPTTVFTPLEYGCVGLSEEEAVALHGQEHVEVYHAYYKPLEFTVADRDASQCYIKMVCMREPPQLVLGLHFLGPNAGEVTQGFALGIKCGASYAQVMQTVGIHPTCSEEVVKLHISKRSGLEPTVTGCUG
Chain of mTrxR-C(αMe)UG (Mus musculus, UniProt Q9JLT4) (Q9JLT4 35-524): as above

As for `CCCCCC(O)/C=C/C=O` (stereo not drawn) [4-Hydroxynonenal, 4-hydroxynonenal], the “inhibition of GPX” value in the data set on GPX is listed as “could not be completely inhibited”.

A word on the IC50: it is the concentration needed to halve the response being measured. Higher therefore signals lower potency. `C=CC=O` [Acrolein, acrolein (prop-2-enal)] had a 50% inhibitory concentration (IC50) against DmTrxR-CCS [1] of 7 µM. Take `C=CC=O` [Acrolein, acrolein]: the “inhibition of Trx-reductase activity” value at DmTrxR-CCS [2] was 75-85%; against mTrxR-C(αMe)UG [3] (800 nM acrolein, pH 5.5, 10 min, 22 °C), 75-85%; on mTrxR-CUG (2.5 μM acrolein, pH 4.6, 10 min, 22 °C) it was 75-85%. `O=C/C=C/c1ccccc1` [Cinnamaldehyde]: the results for the concentration for half-maximal inhibition (IC50) against mTrxR-C(αMe)UG [3] and against mTrxR-CUG were 230 µM and 225 µM, respectively. By solubility is commonly meant how much of the substance goes into solution per volume. Take `COc1cc(/C=C/C(=O)CC(=O)/C=C/c2ccc(O)c(OC)c2)ccc1O` [Curcumin, curcumin]: the Trx-reductase activity remains at mTrxR-C(αMe)UG [3] (at 100 uM curcumin, mutant mTrxR) is ~ 65%. In data set [4], the solubility was at most 100 µM. The compound further had a concentration for half-maximal inhibition (IC50) against mTrxR-CUG of 34 µM. As usually defined, the Km is the substrate concentration at which the rate is half of its maximum. As for `O=C(O)c1cc(SSc2ccc([N+](=O)[O-])c(C(=O)O)c2)ccc1[N+](=O)[O-]` [DTNB, 5,5′-dithiobis(2-nitrobenzoic acid)], the Michaelis-Menten constant (Km) in the data set with mTrxR-C(αMe)UG [5] was determined as 5 ± 0.9 µM. Take `NCC[Se][Se]CCN` [selenocysteamine, selenocysteamine (diselenide, used as dichloride; selenocystamine)]: the Km in the data set on mTrxR-C(αMe)UG [6] was found to be 92 ± 0.9 µM.

(Values after paper PMC7509987 (Biochemistry, 2020).)
